# ChEMBL document CHEMBL1201862, “PubChem BioAssay data set” (2004)
#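 Cells were grown in 96-well plates and exposed to each compound for 48 hours at five concentrations; endpoints were interpolated linearly between bracketing concentrations, or set to the highest concentration if not reached. Abbreviation: GI50, concentration required for 50% inhibition of growth.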 Activity calls are given as the source filed them. No stated cut-off is given here; in the data, active = GI50 up to about 1.1 µM and inactive = higher.
# How the values were obtained:
# Experiment in all cases: NCI tumour cell line growth inhibition, 48 h
# SF-295 = system: SF-295
# MDA-N = system: MDA-N
# NCI-H23 = system: NCI-H23
# NCI-H460 = system: NCI-H460
# NCI-H522 = system: NCI-H522
# SF-539 = system: SF-539
# HT-29 = system: HT-29
# SN12C = system: SN12C
# HOP-92 = system: HOP-92
# SW-620 = system: SW-620
# Hs-578T = system: Hs-578T
# DU-145 = system: DU-145
# LOX IMVI = system: LOX IMVI
# COLO 205 = system: COLO 205
# MOLT-4 = system: MOLT-4
# A498 = system: A498
# KM12 = system: KM12
# 786-0 = system: 786-0
# RXF 393 = system: RXF 393
# HL-60 = system: HL-60
# M14 = system: M14
# NCI-H226 = system: NCI-H226
# T47D = system: T47D
# HCT-116 = system: HCT-116
# HCT-15 = system: HCT-15
# MCF7 = system: MCF7
# SNB-75 = system: SNB-75
# NCI/ADR-RES = system: NCI/ADR-RES
# HCC 2998 = system: HCC 2998
# MDA-MB-435 = system: MDA-MB-435
# UACC-257 = system: UACC-257
# SK-OV-3 = system: SK-OV-3
# UO-31 = system: UO-31
# ACHN = system: ACHN
# SK-MEL-5 = system: SK-MEL-5
# OVCAR-4 = system: OVCAR-4
# OVCAR-8 = system: OVCAR-8
# EKVX = system: EKVX
# HOP-62 = system: HOP-62
# OVCAR-3 = system: OVCAR-3
# CCRF-CEM = system: CCRF-CEM
# SF-268 = system: SF-268
# CAKI-1 = system: CAKI-1
# A549 = system: A549
# OVCAR-5 = system: OVCAR-5
# TK-10 = system: TK-10
# RPMI-8226 = system: RPMI-8226
# UACC-62 = system: UACC-62
# SK-MEL-28 = system: SK-MEL-28
# SK-MEL-2 = system: SK-MEL-2
# PC-3 = system: PC-3
# MDA-MB-231 = system: MDA-MB-231
# Malme-3M = system: Malme-3M
# IGROV-1 = system: IGROV-1
# SNB-19 = system: SNB-19
# K562 = system: K562
# U-251 = system: U-251
# SR = system: SR
compound,measurement,setting,value
CC(C(=O)COCc1ccccc1)P1(=O)OC(C)(C)CN1C(C)(C)C (stereo unspecified),GI50,SF-295,> 100 µM (inactive)
same,GI50,MDA-N,> 100 µM (inactive)
same,GI50,NCI-H23,> 100 µM (inactive)
same,GI50,NCI-H460,> 100 µM (inactive)
same,GI50,NCI-H522,> 100 µM (inactive)
same,GI50,SF-539,> 100 µM (inactive)
same,GI50,HT-29,> 100 µM (inactive)
same,GI50,SN12C,> 100 µM (inactive)
same,GI50,HOP-92,> 100 µM (inactive)
same,GI50,SW-620,> 100 µM (inactive)
same,GI50,Hs-578T,> 100 µM (inactive)
same,GI50,DU-145,> 100 µM (inactive)
same,GI50,LOX IMVI,> 100 µM (inactive)
same,GI50,COLO 205,> 100 µM (inactive)
same,GI50,MOLT-4,> 100 µM (inactive)
same,GI50,A498,> 100 µM (inactive)
same,GI50,KM12,> 100 µM (inactive)
same,GI50,786-0,> 100 µM (inactive)
same,GI50,RXF 393,> 100 µM (inactive)
same,GI50,HL-60,> 100 µM (inactive)
same,GI50,M14,> 100 µM (inactive)
same,GI50,NCI-H226,> 100 µM (inactive)
same,GI50,T47D,> 100 µM (inactive)
same,GI50,HCT-116,> 100 µM (inactive)
same,GI50,HCT-15,> 100 µM
same,GI50,MCF7,> 100 µM (inactive)
same,GI50,SNB-75,54.7 µM (inactive)
same,GI50,NCI/ADR-RES,> 100 µM (inactive)
same,GI50,HCC 2998,> 100 µM (inactive)
same,GI50,MDA-MB-435,> 100 µM (inactive)
same,GI50,UACC-257,> 100 µM (inactive)
same,GI50,SK-OV-3,> 100 µM (inactive)
same,GI50,UO-31,> 100 µM (inactive)
same,GI50,ACHN,> 100 µM (inactive)
same,GI50,SK-MEL-5,> 100 µM (inactive)
same,GI50,OVCAR-4,28.8 µM (inactive)
same,GI50,OVCAR-8,> 100 µM (inactive)
same,GI50,EKVX,> 100 µM (inactive)
same,GI50,HOP-62,> 100 µM (inactive)
same,GI50,OVCAR-3,> 100 µM (inactive)
same,GI50,CCRF-CEM,> 100 µM (inactive)
same,GI50,SF-268,> 100 µM (inactive)
same,GI50,CAKI-1,> 100 µM (inactive)
same,GI50,A549,> 100 µM (inactive)
same,GI50,OVCAR-5,49.4 µM (inactive)
same,GI50,TK-10,> 100 µM (inactive)
same,GI50,RPMI-8226,> 100 µM (inactive)
same,GI50,UACC-62,> 100 µM (inactive)
CN(C)CCCNC(=O)CCNC(=O)c1cc(NC(=O)c2cc(NC(=O)c3cc(NC(=O)c4nc(NC(=O)CCCNC(=O)c5cc(NC(=O)c6cc(NC(=O)c7cc(NC(=O)c8nccn8C)cn7C)cn6C)cn5C)cn4C)cn3C)cn2C)cn1C,GI50,SF-295,> 100 µM (inactive)
same,GI50,MDA-N,> 100 µM (inactive)
same,GI50,NCI-H23,> 100 µM (inactive)
same,GI50,SK-MEL-28,> 100 µM (inactive)
same,GI50,NCI-H460,> 100 µM (inactive)
same,GI50,SK-MEL-2,> 100 µM (inactive)
same,GI50,NCI-H522,> 100 µM (inactive)
same,GI50,SF-539,> 100 µM (inactive)
same,GI50,HT-29,> 100 µM (inactive)
same,GI50,SN12C,> 100 µM (inactive)
same,GI50,HOP-92,> 100 µM (inactive)
same,GI50,SW-620,> 100 µM (inactive)
same,GI50,Hs-578T,> 100 µM (inactive)
same,GI50,PC-3,> 100 µM (inactive)
same,GI50,DU-145,> 100 µM (inactive)
same,GI50,LOX IMVI,> 100 µM (inactive)
same,GI50,COLO 205,> 100 µM (inactive)
same,GI50,MDA-MB-231,> 100 µM (inactive)
same,GI50,Malme-3M,> 100 µM (inactive)
same,GI50,MOLT-4,> 100 µM (inactive)
same,GI50,A498,> 100 µM (inactive)
same,GI50,KM12,73.5 µM (inactive)
same,GI50,786-0,> 100 µM (inactive)
same,GI50,RXF 393,> 100 µM (inactive)
same,GI50,HL-60,> 100 µM (inactive)
same,GI50,M14,> 100 µM (inactive)
same,GI50,NCI-H226,> 100 µM (inactive)
same,GI50,IGROV-1,> 100 µM (inactive)
same,GI50,T47D,> 100 µM (inactive)
same,GI50,HCT-116,> 100 µM (inactive)
same,GI50,SNB-19,> 100 µM (inactive)
same,GI50,HCT-15,> 100 µM
same,GI50,MCF7,> 100 µM (inactive)
same,GI50,SNB-75,> 100 µM (inactive)
same,GI50,NCI/ADR-RES,> 100 µM (inactive)
same,GI50,HCC 2998,> 100 µM (inactive)
same,GI50,MDA-MB-435,> 100 µM (inactive)
same,GI50,K562,> 100 µM (inactive)
same,GI50,UACC-257,> 100 µM (inactive)
same,GI50,SK-OV-3,> 100 µM (inactive)
same,GI50,UO-31,> 100 µM (inactive)
same,GI50,ACHN,> 100 µM (inactive)
same,GI50,SK-MEL-5,> 100 µM (inactive)
same,GI50,OVCAR-4,> 100 µM (inactive)
same,GI50,OVCAR-8,> 100 µM (inactive)
same,GI50,U-251,> 100 µM (inactive)
same,GI50,EKVX,> 100 µM (inactive)
same,GI50,HOP-62,> 100 µM (inactive)
same,GI50,OVCAR-3,> 100 µM (inactive)
same,GI50,CCRF-CEM,> 100 µM (inactive)
same,GI50,SF-268,> 100 µM (inactive)
same,GI50,CAKI-1,> 100 µM (inactive)
same,GI50,A549,> 100 µM (inactive)
same,GI50,OVCAR-5,> 100 µM (inactive)
same,GI50,TK-10,> 100 µM (inactive)
same,GI50,RPMI-8226,> 100 µM (inactive)
same,GI50,SR,> 100 µM (inactive)
C=C(CN(C)C)C1(c2ccccc2)CC2(CCCC2)C(=O)O1 (stereo unspecified),GI50,SF-295,> 100 µM (inactive)
same,GI50,MDA-N,44.8 µM (inactive)
same,GI50,NCI-H23,27.2 µM (inactive)
same,GI50,SK-MEL-28,> 100 µM (inactive)
same,GI50,NCI-H460,> 100 µM (inactive)
same,GI50,SK-MEL-2,> 100 µM (inactive)
same,GI50,NCI-H522,20.9 µM (inactive)
same,GI50,SF-539,> 100 µM (inactive)
same,GI50,HT-29,24.2 µM (inactive)
same,GI50,SN12C,> 100 µM (inactive)
same,GI50,HOP-92,17.9 µM (inactive)
same,GI50,SW-620,> 100 µM (inactive)
same,GI50,Hs-578T,> 100 µM (inactive)
same,GI50,PC-3,79.6 µM (inactive)
same,GI50,DU-145,> 100 µM (inactive)
same,GI50,LOX IMVI,53 µM (inactive)
same,GI50,COLO 205,28.2 µM (inactive)
same,GI50,MDA-MB-231,64.4 µM (inactive)
same,GI50,Malme-3M,14.7 µM (inactive)
same,GI50,MOLT-4,24.9 µM (inactive)
same,GI50,A498,> 100 µM (inactive)
same,GI50,KM12,> 100 µM (inactive)
same,GI50,786-0,66.5 µM (inactive)
same,GI50,RXF 393,> 100 µM (inactive)
same,GI50,HL-60,23.7 µM (inactive)
same,GI50,M14,66.5 µM (inactive)
same,GI50,NCI-H226,> 100 µM (inactive)
same,GI50,IGROV-1,> 100 µM (inactive)
same,GI50,T47D,> 100 µM (inactive)
same,GI50,HCT-116,70.3 µM (inactive)
same,GI50,SNB-19,> 100 µM (inactive)
same,GI50,HCT-15,76.9 µM
same,GI50,MCF7,74.1 µM (inactive)
same,GI50,SNB-75,> 100 µM (inactive)
same,GI50,HCC 2998,> 100 µM (inactive)
same,GI50,MDA-MB-435,56.4 µM (inactive)
same,GI50,K562,30.2 µM (inactive)
same,GI50,UACC-257,49.2 µM (inactive)
same,GI50,SK-OV-3,> 100 µM (inactive)
same,GI50,UO-31,23.9 µM (inactive)
same,GI50,ACHN,92.5 µM (inactive)
same,GI50,SK-MEL-5,> 100 µM (inactive)
same,GI50,OVCAR-4,> 100 µM (inactive)
same,GI50,OVCAR-8,> 100 µM (inactive)
same,GI50,U-251,> 100 µM (inactive)
same,GI50,EKVX,> 100 µM (inactive)
same,GI50,HOP-62,> 100 µM (inactive)
same,GI50,OVCAR-3,38.7 µM (inactive)
same,GI50,CCRF-CEM,20.6 µM (inactive)
same,GI50,SF-268,> 100 µM (inactive)
same,GI50,CAKI-1,> 100 µM (inactive)
same,GI50,A549,> 100 µM (inactive)
same,GI50,OVCAR-5,> 100 µM (inactive)
same,GI50,TK-10,> 100 µM (inactive)
same,GI50,RPMI-8226,88.3 µM (inactive)
same,GI50,UACC-62,> 100 µM (inactive)
